{
  "source": "patent US4859584A",
  "about": "(priority 1986, dated 1989)",
  "note": "Residues, ends and D or L forms follow the SMILES beside them.",
  "data": [
    {"test_system": "Yac cells", "conditions": "not given", "values": [
      {"compound": "NC(=O)CNCCS(=O)(=O)O", "note": "[ACES, 2-[(2-Amino-2-oxoethyl)amino]ethane sulfonic acid]", "Doubling [time] of Yac cells": 1038.4},
      {"compound": "NCCCS(=O)(=O)O", "note": "[3-Amino-1-propanesulfonic acid]", "Doubling [time] of Yac cells": 99.6},
      {"compound": "O=S(=O)(O)CC(O)CN1CCOCC1", "note": "(centres unmarked) [MOPSO, 3-(N-morpholino)-2-hydroxypropane-sulfonic acid]", "Doubling [time] of Yac cells": 178.4},
      {"compound": "NCC(=O)NCC(=O)O", "note": "[Glycylglycine] (H-Gly-Gly-OH)", "Doubling [time] of Yac cells": 66.9},
      {"compound": "N[C@H]1C(O)O[C@H](CO)[C@@H](O)[C@@H]1O", "note": "(some centres unmarked) [Glucosamine]", "Doubling [time] of Yac cells": 288.4},
      {"compound": "O=S(=O)(O)CC(O)CNC(CO)(CO)CO", "note": "(centres unmarked) [TAPSO, 3-[N-tris(hydroxymethyl)methylamino]-2-hydroxypropanesulfonic acid]", "Doubling [time] of Yac cells": 63.6},
      {"compound": "O=C[C@H](O)[C@@H](O)[C@H](O)[C@H](O)CO", "note": "[Glucose]", "Doubling [time] of Yac cells": 34.5, "Effect on cell doubling time (in words)": "negligible effects on cell doubling time"},
      {"compound": "Phosphate Buffered Saline", "Doubling [time] of Yac cells": 31.0},
      {"compound": "O=S(=O)(O)CCCN1CCN(CCO)CC1", "note": "[EPPS, N-(2-Hydroxyethyl)piperazine-N-3-propanesulfonic acid]", "Doubling [time] of Yac cells": 32.2, "Effect on cell doubling time (in words)": "negligible effects on cell doubling time"},
      {"compound": "O=S(=O)(O)CCCNC(CO)(CO)CO", "note": "[TAPS, Tris(hydoxymethyl)-methylaminopropane sulfonic acid]", "Doubling [time] of Yac cells": 32.7, "Effect on cell doubling time (in words)": "negligible effects on cell doubling time"},
      {"compound": "O=S(=O)(O)CC(O)CN1CCN(CCO)CC1", "note": "(centres unmarked) [HEPPSO, N-2-hydroxyethylpiperazine-N-2-hydroxypropane-sulfonic acid]", "Doubling [time] of Yac cells": 23.4, "Effect on cell doubling time (in words)": "negligible effects on cell doubling time"},
      {"compound": "O=S(=O)(O)CCNC1CCCCC1", "note": "[CHES, 2-(N-cyclohexylamino)ethane sulfonic acid]", "Doubling [time] of Yac cells": 51.5},
      {"compound": "O=S(=O)(O)CCCNC1CCCCC1", "note": "[CAPS, 3-(Cyclohexylamino)-1-propanesulfonic acid]", "Doubling [time] of Yac cells": 45.8, "Effect on cell doubling time (in words)": "negligible effects on cell doubling time"},
      {"compound": "O=C(O)CN(CCO)CCO", "note": "[BICINE, N,N-bis(2-hydroxyethyl)glycine]", "Doubling [time] of Yac cells": 57.7},
      {"compound": "O=S(=O)(O)CC(O)CN(CCO)CCO", "note": "(centres unmarked) [DIPSO, 3-[N-N-bis(2-hydroxyethyl)amino]-2-hydroxypropane-sulfonic acid]", "Doubling [time] of Yac cells": 36.7, "Effect on cell doubling time (in words)": "negligible effects on cell doubling time"},
      {"compound": "OC[C@H]1O[C@@](CO)(O[C@H]2O[C@H](CO)[C@@H](O)[C@H](O)[C@H]2O)[C@@H](O)[C@@H]1O", "note": "[Sucrose]", "Doubling [time] of Yac cells": 41.0, "Effect on cell doubling time (in words)": "negligible effects on cell doubling time"}
    ]},
    {"test_system": "rabbit red cells", "conditions": "in vivo", "units": {"Lifetime of labelled red cells in circulation": "days"}, "values": [
      {"compound": "CCCCCCCCCCCCCCN1C(=CC=CC=Cc2sc3ccccc3[n+]2CCCCCCCCCCCCCC)Sc2ccccc21", "note": "[DiSC14 (5)]", "Effect on clearance rate of red blood cells": "did not affect the clearance rate of red blood cells", "Lifetime of labelled red cells in circulation": 52}
    ]},
    {"test_system": "V79 cells", "conditions": "not given", "values": [
      {"compound": "CCCCCCCCCCCCCCN1C(=CC=Cc2oc3ccccc3[n+]2CCCCCCCCCCCCCC)Oc2ccccc21", "note": "[DiOC14 (3)]", "Cell doubling time / growth of labelled cells": "Cell doubling time was unaffected"}
    ]}
  ]
}
